Key:
SD masculine rats = assay: Subacute toxicity, oral, three months; assay type: in vivo
Experimental: (§1) With (a) the 3-oxygermylpropionic acid according to this invention (hereinafter called SK-818) and (b) the composition of Preparation Ex. 1, SD rats and mice were subjected to acute and subacute (chronic) toxicity tests in conventional manner. (Groups of animals, 8-10 per group, were used for experimentation).
(a) SK-818 and (b) the composition of Preparation Ex. 1 were administered orally to SD masculine rats at doses of 256, 380, 640, 1300, 1600 and 4000 mg/kg/day over three months to determine the doses at which there was no toxic influence on the animals and the animals were absolutely poisoned, respectively.

rat's hepatocytes = assay: Inhibition of GPT elution from cultivated liver cells treated with hepatocyte-damaging substances; assay type: cell-based
Description: The effect on relieving the culture damage induced by adding hepatocyte-damaging substances and SK-818 to hepatocyte culture systems was examined by measuring the activity of glutamic-pyruvic transaminase (GPT) eluates obtained by cellular disorders. How much the elution of GPT was inhibited was used as an index to the hepatoxicity-relieving effect.
The following four substances were used as the hepatocyte-damaging (hepatoxic) substances. • (a) Galactosamine - "J. Natur. Prod.", 46, 841, 1983. • (b) Calcium ionophore - "Pharmacognosy", 39, 218, 1985. • (c) Cumene hydroperoxide - "Planta Med.", 51, 50, 1985. • (d) 1-Naphthylisothiocyanate.
The extraction and culture of a single layer of rat's hepatocytes were carried out by the procedures described by Nakamura et al in "Protein, Nucleic Acid and Oxygen", Extra Number No. 24, pp. 55-74, 1981.
Single layers of rats' hepatocytes were cultured for certain periods of time:- 0 hour for a galactosamine group, 20.5 hours for calcium ionophore and cumene hydroperoxide groups, and 14.5 hours for a 1-naph isocyanate group. Afterwards, the hepatocyte-damaging substances were added to the culture media at the respective desired concentrations:- 0.35 mM for (a); 10 »m for (b), 0.5 mM for (c) and 188 »m for (d)), which were then cultured for the respective given periods of time:- 38 hours for the group (a), 1 hour for (b), 1 hour for (c) and 12 hours for (d).
SK-818 was dissolved in bovine embryo serum, and the serum solution was then added to each medium at the respective stages of culture by the following three methods; • (a) it was added to the pre-culture medium prior to the addition of the hepatocyte-damaging substance (called the pre-addition); • (b) it was added to the culture medium simultaneously with the addition of the hepatocyte-damaging substance (called the simultaneous addition); and • (c) it was added to the pre-culture and culture media (called the total addition).
The activity of the GPT eluates produced by cytotoxicity in the media was measured by a GPT measuring kit. Then, GPT reductions in % were found by the following equation: [formula] wherein A is the activity in Karmen units of GPT in a culture medium to which no hepatocyte-damaging substance is added, B is the activity in Karmen units of GPT in a culture medium to which the hepatocyte-damaging substance is added; and C is the activity in Karmen units of GPT in a culture medium to which the hepatocyte-damaging substance is added together with 3-oxygermylpropionic acid.

mice = assay: Acute toxicity test, per os, mice; assay type: in vivo
Description: as §1

Wistar masculine rats = assay: Relief of nephrotoxicity of mercuric chloride; assay type: in vivo
Experimental: The effect of SK-818 on the impairment of kidney-function by mercuric chloride was examined, using blood-urinary nitrogen levels as an index.
Mercuric chloride was subcutaneously administered to Wistar masculine rats (seven weeks of age) 6-10 per group, at a dose of 1.2 mg/kg. From 24 hours after the administration till the lapse of 96 hours, the animals were permitted to freely drink an aqueous solution containing 2,400 ppm of SK-818 (at an average dose of 231±14 mg/kg). […]

ddy masculine mouse = assay: Amnesia induced by carbon dioxide, passive avoidance in bright/dark box; assay type: in vivo; settings: Group B: SK-818 + Foot Shocks + CO₂ Gas, 10.0 mg/kg/day orally from 3 days before
Experimental: A ddy masculine mouse was encaged in a […] of a testing box (comprising bright and dark chambers, each measuring 15.0 x 17.5 x 18.5 cm and provided with an inlet/outlet combination of 6.0 x 6.0 cm, and the time which it took the animal to walk into the dark chamber (the reaction potential time during acquisition, hereinafter referred to as A.T.) was then measured. From just after the animal walked into the dark chamber, foot shocks of 2.5 mA were continuously applied to the animal through a floor grid with a shock generator scrambler, made by Astech Co., Ltd., until the animal walked into the bright chamber. Immediately after the acquisition trial, the animal was encaged in a desiccator, and 15 l/min of CO₂ gas were injected into the desiccator for 40 to 45 seconds for suffocation. After the animal was removed from the desiccator, artificial aspiration was immediately tried thereon. The animal was then put back in a home cage.
After 24 hours of the acquisition trial, the animal was again encaged in the bright chamber of the testing box to measure the time which it took the animal to walk into the dark chamber (or the reaction potential time during the retention trial, hereinafter referred to as R.T.). SK-818, in the form of a mixture with feed, had been administered orally to the animal from 3 days before at a dose of 10.0 mg/kg/day.

SD rats = assay: Acute toxicity test, per os, rats; assay type: in vivo
Description: as §1

SD rats and mice = assay: Acute toxicity test, general symptoms; assay type: in vivo
Description: as §1
Between (a) SK-818 and (b) the composition of Preparation Ex. 1 there was no significant difference in acute toxicity.

[1] = orally, daily over three months

3-oxygermylpropionic acid [SK-818] was tested, and the mortality (SD masculine rats; At 4000 mg/kg, orally over three months) was “some animals died”, the “dose at which the animals were absolutely poisoned” value (SD masculine rats; [1]) was 1600 mg/kg and the “dose which had no toxic influence on the animals” value (SD masculine rats; [1]) was 256 mg/kg. It also gave a GPT reductions (rat's hepatocytes; 1-naphthylisothiocynate 188 »m, simultaneous addition) of 79%, a GPT reductions (rat's hepatocytes; 1-naphthylisothiocynate 188 »m, total addition) of 67% and a GPT reductions (rat's hepatocytes; calcium ionophore 10 »m, simultaneous addition) of 27%. The GPT reductions (rat's hepatocytes; calcium ionophore 10 »m, total addition) was 36%, the GPT reductions (rat's hepatocytes; cumene hydroperoxide 0.5 mM, simultaneous addition) was 63% and the GPT reductions (rat's hepatocytes; cumene hydroperoxide 0.5 mM, total addition) was 42%. For the same substance, the GPT reductions (rat's hepatocytes; galactosamine 0.35 mM, simultaneous addition) was 29%, the GPT reduction (rat's hepatocytes; only pre-addition, before the hepatocyte-damaging substance) was “No GPT reduction” and the LD50 (mice; female) was 5,800 or more mg/kg. The LD50 (mice; male) was 5,600 or more mg/kg, the Blood-urinary nitrogen (Wistar masculine rats; 0 hour, mercuric chloride 1.2 mg/kg s.c.) was 15.1 ± 0.4 mg/dL and the Blood-urinary nitrogen (Wistar masculine rats; 24 hours after mercuric chloride, drinking of 2400ppm aqueous solution starts at 24 hours) was 31.9 ± 1.3 mg/dL. The Blood-urinary nitrogen (Wistar masculine rats; 48 hours after mercuric chloride, 2400ppm aqueous solution) was 50.6 ± 9.8 mg/dL, the Blood-urinary nitrogen (Wistar masculine rats; 72 hours after mercuric chloride, 2400ppm aqueous solution) was 45.9 ± 13.8 mg/dL and the Blood-urinary nitrogen (Wistar masculine rats; 92 hours after mercuric chloride, 2400ppm aqueous solution) was 30.9 ± 9.4 mg/dL. For the same substance, the “A.T. (reaction potential time during acquisition)” value (ddy masculine mouse) was 48.5 ± 9.1 s, the “R.T. (reaction potential time during the retention trial)” value (ddy masculine mouse; 24 hours after acquisition) was 276.5 ± 19.3 s and the LD50 (SD rats; female) was 7,050 or more mg/kg. The LD50 (SD rats; male) was 7,700 or more mg/kg and the general symptoms (SD rats and mice) was “general symptoms of tranquilization, diarrhoea, vomiting and typhlectasis”.

From patent publication EP0435693B1, “Pharmaceutical compositions containing 3-oxygermylpropionic acid polymers for inhibiting the degeneration of cells” (SANWA KAGAKU KENKYUSHO CO., LTD., priority 1989, dated 1991)
